The values below come from US20110028758A1, “Trans-cinnamic acid derivative, its preparation mathod and the use” (priority 2007, published 2011).

On data set [1], the source says: The 180 tumor-bearing mice are divided into 18 groups by the weigh of the mice, wherein each group has 10 mice (half male and half female). The drug delivery methods of each group are shown in Table 3 to illustrate eighteen groups of mice drug delivery situation.
Group 2 is the cyclophosphamide (CTX) group, and the mice of group 2 are only given the cyclophosphamide in the intraperitoneal of the mice on the second day of the tumor-bearing.
Group 3 to 18 groups are given the four compounds respectively, wherein the groups delivered 25 mg/kg drug are tail vein low-dose group, wherein the groups delivered 50 mg/kg drugs are the tail vein medium-dose group, wherein the groups delivered 100 mg/kg drugs are the tail vein high-dose group, wherein the groups delivered 200 mg/kg drugs are the oral enteral group. These mice from group 3 to 18 start the drug delivery on the second day of the tumor-bearing, and delivered once a day for 10 sequent days.
After the drug delivery, weight the mice weight, then execute the mice, and then weight the spleen and thymus weight by electronic weighting scale respectively. The spleen index and thymus index are the weight (mg) of mice spleen, thymus of each group/mice weight (g).

Data set [2] concerns human normal embryonic kidney HEK-293 cells. Kind of data set: MTT test on normal cells, HEK-293. Format: cell-based. The settings on record: for IC50: Homo sapiens; for inhibitory effect on HEK-293 cells: at concentrations having 50% inhibitory effect on the tumor cells. From the text:
(§1) A complete culture medium is used for diluting the above original solution into corresponding concentrations for later use.
(§2) Human cervical carcinoma Hela cells, human hepatoma BEL-7402 cells, mucinous Human epidermoid A549 lung cancer cells, human breast cancer MCF-7/S cells, human glioma U251 cells, and human normal embryonic kidney HEK-293 cells are purchased from USA, American Type Culture Collection (ATCC). All the tumor cells are used the DMEM medium (containing 10% FBS, 100 U/ml penicillin and 100 μg/ml streptomycin) for culturing and subculturing, and HEK-293 cells are using RPMI1640 medium (10% FBS, 100 U/ml penicillin, and 100 μg/ml streptomycin) for culturing and subculturing, wherein the culture condition is in a 5% CO2 incubator at 37° C.
Subculture six kinds of cells, which has a logarithmic growing period, adherent rate about 80%, and in good condition, such as human cervical carcinoma Hela cells, human hepatoma BEL-7402 cells, mucinous Human epidermoid A549 lung cancer cells, human breast cancer MCF-7/S cells, human glioma U251 cells, and human normal embryonic kidney HEK-293 cells. […] Repeat the above experiment three times to get an average value.
(§3) IR %=(1−ODsampale/ODcontrol)×100%

Data set [3] concerns mucinous Human epidermoid A549 lung cancer cells. The experiment in a line: MTT anti-tumor test in vitro, A549. The settings on record: Homo sapiens, A549, 48 h. In kind it is cell-based.
Description: as §1, §2
Subculture six kinds of cells, which has a logarithmic growing period, adherent rate about 80%, and in good condition, such as human cervical carcinoma Hela cells, human hepatoma BEL-7402 cells, mucinous Human epidermoid A549 lung cancer cells, human breast cancer MCF-7/S cells, human glioma U251 cells, and human normal embryonic kidney HEK-293 cells. Discard the culture medium, rinse 1-2 times with PBS to remove serum, add 1 ml 0.25% Trypsin-0.01% EDTA (37° C. incubation) to digest for 1-2 minutes, add FBS culture medium to terminate the above digestion, centrifuge at a speed below 800 r/min for 2-3 minutes and discard the supernatant, re-suspended cells in 10% FBS medium, tack the cell suspension liquid for cell counting, adjust the density of the above liquid to 1×10^5/ml, then inoculate to a 96-holes plates (100 μl/hole), and then incubate in 5% CO2 incubator at 37° C. overnight. The next day add above cells to different concentrations of I-a, I-b, I-c and I-d, 100 μl/hole (its final concentration is respectively 30, 60, 120, 240, 480 μg/ml); meanwhile, set up the blank control group (0 μM), and establish 3 holes. Continuing the cultural process, discard the culture medium after 48 hours that the drug has been effected, add 100 μl PBS of 0.5 mg/ml MTT (PH 7.2) into each holes, after 4 hours culture, remove the culture medium by adherent cells express flipping method, add 100 μl of DMSO to each holes, oscillate it by micro-oscillation device for 5 minutes, and measure the OD value at 490 nm wavelength. Repeat the above experiment three times to get an average value. Calculate the inhibition rate (IR %) of the tumor cell proliferation in vitro from different concentrations of I-a, I-b, I-c, I-d by the following formula:
as §3
Use SPSS11.5 software to calculate the half inhibitory concentration IC50 of I-a, I-b, I-c and I-d. The results are shown in Table 2 to illustrate IC50 values (unit: μg/ml) of the four compounds.

[4] abbreviates: HEK293, 48 h, HEK- (HEK-293), average of three experiments ± SD, MTT, 48 hours, read-out: IC50 value.
[5] abbreviates: HEK293, 48 h, HEK- (HEK-293), experiment 2, MTT, 48 hours, read-out: IC50 value.
The mark [6] stands for this setting: HEK293, 48 h, HEK- (HEK-293), experiment 3, MTT, 48 hours, read-out: IC50 value.
Setting [7] is: HEK293, text, read-out: HEK-293 cells IC50 values.
Where [8] appears, read: A549, average of three experiments ± SD, MTT, 48 hours, read-out: IC50 value.
Setting [9] is: A549, experiment 2, MTT, 48 hours, read-out: IC50 value.
Where [10] appears, read: A549, experiment 3, MTT, 48 hours, read-out: IC50 value.
The mark [11] stands for this setting: at 48 hours, read-out: A549 cell proliferation IC50 values.
Where [12] appears, read: HEK293, 48 h, HEK- (HEK-293), experiment 1, MTT, 48 hours, read-out: IC50 value.
Setting [13] is: A549, experiment 1, MTT, 48 hours, read-out: IC50 value.

≈ marks a conversion by molar mass, not a printed value. Read-outs that look alike come from different tables or passages of the source.

Regarding `COc1ccc(/C=C/C(=O)O)c(O)c1CC=C(C)C` [I-a, (E)-2-hydroxy-4-methoxy-3-isopentenyl-cinnamic acid], in data set [1] (high-dose group, tail vein 100 mg/kg, 10 days), the “death during drug delivery” value is reported as “does not have any death”. In data set [1] (mouse, in vivo), the “splenomegaly of the tumor-bearing mice” value is given as “no affect”. Besides, the IC50 turned out to be 404 ± 9.2 µg/mL (≈ 1540 µM) in data set [2] (setting [4]); 399 µg/mL (≈ 1520 µM) in data set [2] (setting [5]); 414 µg/mL (≈ 1580 µM) in data set [2] (setting [6]); 404 ± 9.2 µg/mL (≈ 1540 µM) in data set [2] (setting [7]); 118 ± 10.6 µg/mL (≈ 451 µM) in data set [3] (setting [8]); 118 µg/mL (≈ 450 µM) in data set [3] (setting [9]). For the same compound, the IC50 in data set [3] (setting [10]) was 107 µg/mL (≈ 408 µM); in data set [3] (setting [11]), 118 ± 10.6 µg/mL (≈ 451 µM). Besides, in data set [2], the “inhibitory effect on HEK-293 cells” value was “unobvious”.

As for `COc1ccc(/C=C\C(=O)O)c(OC)c1CC=C(C)C` [I-b, (Z)-2,4-dimethoxy-3-isopentenyl-cinnamic acid], the IC50 in data set [2] (setting [4]) amounted to 365 ± 6.14 µg/mL (≈ 1320 µM); in data set [2] (setting [12]) it was 358 µg/mL (≈ 1300 µM); in data set [2] (setting [5]), 371 µg/mL (≈ 1340 µM); in data set [2] (setting [6]), 366 µg/mL (≈ 1320 µM); in data set [3] (setting [8]), 218 ± 12.6 µg/mL (≈ 788 µM); in data set [3] (setting [13]), 230 µg/mL (≈ 832 µM). The IC50 stood at 216 µg/mL (≈ 782 µM) in data set [3] (setting [9]), 205 µg/mL (≈ 742 µM) in data set [3] (setting [10]) and 218 ± 12.6 µg/mL (≈ 788 µM) in data set [3] (setting [11]).

On to `COc1ccc(/C=C/C(=O)O)c(OC)c1CC=C(C)C` [I-c, (E)-2,4-dimethoxy-3-isopentenyl-cinnamic acid], for which the “effect near the tail vein of the mice and its surrounding tissue” value in data set [1] (mouse, in vivo) was “irritation or corrosive”. The “splenomegaly of the tumor-bearing mice” value in data set [1] (mouse, in vivo) is listed as “can cause the splenomegaly”. Further, the IC50 in data set [2] (setting [4]) was determined as 369 ± 13.6 µg/mL (≈ 1340 µM); in data set [2] (setting [12]), 383 µg/mL (≈ 1390 µM); in data set [2] (setting [5]), 367 µg/mL (≈ 1330 µM); in data set [2] (setting [6]) it was 356 µg/mL (≈ 1290 µM); in data set [2] (setting [7]), 369 ± 13.6 µg/mL (≈ 1340 µM); in data set [3] (setting [8]), 158 ± 5.66 µg/mL (≈ 572 µM). Also, the IC50 in data set [3] (setting [13]) was found to be 151 µg/mL (≈ 546 µM); in data set [3] (setting [9]), 162 µg/mL (≈ 586 µM); in data set [3] (setting [10]), 159 µg/mL (≈ 575 µM); in data set [3] (setting [11]), 158 ± 5.66 µg/mL (≈ 572 µM). In addition, in data set [2], the “inhibitory effect on HEK-293 cells” value was “unobvious”.
